Assay results taken from US6605625B2, “Ortho, meta-substituted bisaryl compounds, processes for their preparation, their use as medicaments, and pharmaceutical preparations comprising them” (Aventis Pharma Deutschland GmbH, priority 2000, dated 2003).

biological target: T1, Kv1.5 channels from humans (Homo sapiens, UniProt P22460); assay: Kv1.5 currents in Xenopus oocytes, 2-microelectrode voltage clamp; assay type: cell-based; details: human Kv1.5 expressed in Xenopus laevis oocytes; voltage jumps to 0 mV and 40 mV, 500 ms; room temperature; inhibition of Kv1.5 control current, Hill equation
T1 construct: expressed in transfected cells; host or cells: Xenopus laevis oocytes injected with in vitro synthesized RNA
T1 sequence (P22460 whole entry): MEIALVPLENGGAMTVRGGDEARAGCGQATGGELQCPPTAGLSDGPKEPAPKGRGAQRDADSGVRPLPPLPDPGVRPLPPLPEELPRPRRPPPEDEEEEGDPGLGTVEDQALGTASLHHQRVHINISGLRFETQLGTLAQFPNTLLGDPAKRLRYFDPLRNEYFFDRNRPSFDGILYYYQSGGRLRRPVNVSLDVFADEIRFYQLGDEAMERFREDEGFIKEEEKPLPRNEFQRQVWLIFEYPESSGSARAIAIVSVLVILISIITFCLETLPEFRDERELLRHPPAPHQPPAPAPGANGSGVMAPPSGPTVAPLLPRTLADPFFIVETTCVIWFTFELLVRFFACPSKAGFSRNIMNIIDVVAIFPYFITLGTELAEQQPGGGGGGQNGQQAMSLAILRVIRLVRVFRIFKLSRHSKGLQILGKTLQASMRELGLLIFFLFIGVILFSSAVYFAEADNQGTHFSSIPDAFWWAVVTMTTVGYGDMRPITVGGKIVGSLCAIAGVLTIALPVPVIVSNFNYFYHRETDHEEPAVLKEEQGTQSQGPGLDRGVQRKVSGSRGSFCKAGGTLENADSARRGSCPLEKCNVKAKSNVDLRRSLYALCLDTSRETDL
Procedure: Kv1.5 channels from humans were expressed in Xenopus oocytes. To this end, oocytes from Xenopus laevis were first isolated and defolliculated. RNA coding for Kv1.5 synthesized in vitro was then injected into these oocytes. After a Kv1.5 protein expression for 1-7 days, Kv1.5 currents were measured on the oocytes using the 2-microelectrode voltage clamp technique. The Kv1.5 channels were in this case as a rule activated using voltage jumps to 0 mV and 40 mV lasting 500 ms. The bath was rinsed using a solution of the following composition: NaCl 96 mM, KCl 2 mM, CaCl2 1.8 mM, MgCl2 1 mM, HEPES 5 mM (titrated with NaOH to pH 7.4). These experiments were carried out at room temperature. The following were employed for data acquisition and analysis: Gene clamp amplifier (Axon Instruments, Foster City, USA) and MacLab D/A converter and software (ADInstruments, Castle Hill, Australia). The substances according to the invention were tested by adding them to the bath solution in different concentrations. The effects of the substances were calculated as the percentage inhibition of the Kv1.5 control current which was obtained when no substance was added to the solution. The data were then extrapolated using the Hill equation in order to determine the inhibition concentrations IC50 for the respective substances.

`COc1ccc(CC(=O)NCc2ccccc2-c2cccc(C(=O)NCCC(C)C)c2)cc1` [Example 28] and `COc1ccc(CC(=O)NCc2ccccc2-c2cc(C(=O)NCCC(C)C)ccc2C)cc1` [Example 29] are within 1.5-fold of each other in IC50: 4.2 µM for the first, 4 µM for the second.

`COc1ccc(CC(=O)NCc2ccccc2-c2cccc(C(=O)Nc3ccc(OC)cc3)n2)cc1` [Example 20, 6-(2-{[2-(4-Methoxyphenyl)acetylamino]methyl}phenyl)pyridine-2-carboxylic acid (4-methoxyphenyl)amide] and `COc1ccc(CCC(=O)NCc2ccccc2-c2cccc(C(=O)Nc3ccc(OC)cc3)n2)cc1` [Example 23] cannot be ordered by IC50: < 100 µM for the first, < 100 µM for the second.

`COc1ccc(CC(=O)NCc2ccccc2-c2cccc(C(=O)NCc3ccc(F)cc3F)c2)cc1` [Example 27] and `COc1ccc(CC(=O)NCc2ccccc2-c2cncc(C(=O)NCc3ccc(F)cc3F)c2)cc1` [Example 26] are within 1.5-fold of each other in IC50: 6 µM for the first, 7.4 µM for the second.

`Cc1ccc(C(=O)NCCC(C)C)cc1-c1ccccc1CNC(=O)OCc1ccccc1` [Example 13] and `CC(C)CCNC(=O)c1cccc(-c2ccccc2CNC(=O)OCc2ccccc2)c1` [Example 14] cannot be ordered by IC50: 7 µM for the first, < 100 µM for the second.

`CC(C)C[C@H](NC(=O)c1cccc(-c2ccccc2CNC(=O)OC(C)(C)C)n1)C(N)=O` [Example 10] and `CC(C)CCNC(=O)c1cccc(-c2ccccc2CNC(=O)OC(C)(C)C)n1` [Example 5] cannot be ordered by IC50: < 100 µM for the first, 6 µM for the second.

Compared with `COc1ccc(NC(=O)c2cccc(-c3ccccc3CNC(=O)OC(C)(C)C)n2)cc1` [Example 9], `COc1ccc(NC(=O)c2cccc(-c3ccccc3CNC(=O)O[C@@H](C)c3ccccc3)n2)cc1` [Example 19] is 1.5-fold lower in IC50: 3 µM for the first, 2 µM for the second.

`Cc1ccc(C(=O)NCCC(C)C)cc1-c1ccccc1CNC(=O)OC(C)(C)C` [Example 4] and `CC(C)CCNC(=O)c1cncc(-c2ccccc2CNC(=O)OC(C)(C)C)c1` [Example 7] cannot be ordered by IC50: 6.1 µM for the first, < 100 µM for the second.

`CC(C)(C)OC(=O)NCc1ccccc1-c1cncc(C(=O)NCc2ccc(F)cc2F)c1` [Example 8] and `CC(C)(C)OC(=O)NCc1ccccc1-c1cccc(C(=O)NCc2ccc(F)cc2F)c1` [Example 2] cannot be ordered by IC50: < 100 µM for the first, < 100 µM for the second.

`COc1ccc(CCC(=O)NCc2ccccc2-c2cc(C(=O)NCCC(C)C)ccc2C)cc1` [Example 30] and `COc1ccc(CC(=O)NCc2ccccc2-c2cccc(C(=O)NCCc3ccccn3)n2)cc1` [Example 22] cannot be ordered by IC50: 3.1 µM for the first, < 100 µM for the second.

`COc1ccc(CC(=O)NCc2ccccc2-c2cccc(C(=O)NCc3ccc(F)cc3F)n2)cc1` [Example 21] and `O=C(NCc1ccccc1-c1cccc(C(=O)NCc2ccc(F)cc2F)n1)OCc1ccccc1` [Example 16] cannot be ordered by IC50: 5.7 µM for the first, < 100 µM for the second.

`CCOc1ccc(C(=O)NCc2ccccc2-c2cccc(C(=O)Nc3ccc(OC)cc3)n2)cc1` [Example 24] and `C[C@H](OC(=O)NCc1ccccc1-c1cccc(C(=O)NCCc2ccccn2)n1)c1ccccc1` [Example 12, (S)-1-(Phenylethyl) {2-[6-(2-pyridin-2-ylethylcarbamoyl)pyridin-2-yl]benzyl}carbamate] cannot be ordered by IC50: < 100 µM for the first, 2.2 µM for the second.

`CC(C)C[C@H](NC(=O)c1cccc(-c2ccccc2CNC(=O)O[C@@H](C)c2ccccc2)n1)C(N)=O` [Example 18] and `CC(C)CCNC(=O)c1cccc(-c2ccccc2CNC(=O)OCc2ccccc2)n1` [Example 17] cannot be ordered by IC50: 4.2 µM for the first, < 100 µM for the second.

`CC(C)(C)OC(=O)NCc1ccccc1-c1cccc(C(=O)NCCc2ccccn2)n1` [Example 11] and `CC(C)(C)OC(=O)NCc1ccccc1-c1cccc(C(=O)NCc2ccc(F)cc2F)n1` [Example 6] cannot be ordered by IC50: 10 µM for the first, < 100 µM for the second.

`CC(C)(C)OC(=O)NCc1ccccc1-c1ccc(Cl)c(C(=O)NCc2ccc(F)cc2F)c1` [Example 3] and `O=C(NCc1ccccc1-c1cccc(C(=O)NCc2ccc(F)cc2F)c1)OCc1ccccc1` [Example 15] cannot be ordered by IC50: < 100 µM for the first, < 100 µM for the second.
